Data: ChEMBL document CHEMBL4673262, “Ginkgobilol, a new diarylpentanoid and an osteogenic diarylpentanoid analog from Ginkgo biloba leaves” (2020)
Calls of active or inactive are those of the source. The rule behind the calls is not given here.

Legend:
C3H 10T1/2 [1] = test: Induction of osteogenic differentiation in mouse C3H10T1/2 cells assessed as osteoblast by measuring increase in alkaline phosphatase at 20 uM relative to control; assay type: functional, cell-based
C3H 10T1/2 [2] = test: Induction of osteogenic differentiation in mouse C3H10T1/2 cells assessed as increase in osteopontin mRNA expression by RT-qPCR analysis relative to control; assay type: functional, cell-based
C3H 10T1/2 [3] = test: Induction of osteogenic differentiation in mouse C3H10T1/2 cells assessed as increase in alkaline phosphatase mRNA expression by RT-qPCR analysis relative to control; assay type: functional, cell-based
[4] = Induction of osteogenic differentiation in mouse C3H10T1/2 cells assessed as increase in alkaline phosphatase mRNA expression at 40 uM by RT-qPCR analysis relative to control; assay type: functional, C3H 10T1/2
C3H 10T1/2 [5] = test: Induction of osteogenic differentiation in mouse C3H10T1/2 cells upto 40 uM assessed as osteoblast by measuring alkaline phosphatase after 10 days of differentiation relative to control; assay type: functional, cell-based; settings: dose microM <=40, time 10.0 day
[6] = Induction of osteogenic differentiation in mouse C3H10T1/2 cells assessed as increase in osteopontin mRNA expression at 40 uM by RT-qPCR analysis relative to control; assay type: functional, C3H 10T1/2
C3H 10T1/2 [7] = test: Induction of osteogenic differentiation in mouse C3H10T1/2 cells assessed as increase in alkaline phosphatase mRNA expression at 5 uM by RT-qPCR analysis relative to control; assay type: functional, cell-based
C3H 10T1/2 [8] = test: Induction of osteogenic differentiation in mouse C3H10T1/2 cells assessed as increase in osteopontin mRNA expression at 5 uM by RT-qPCR analysis relative to control; assay type: functional, cell-based

| SMILES | Activity (C3H 10T1/2 [1]) | Activity (C3H 10T1/2 [2]) | Activity (C3H 10T1/2 [3]) | fold change (FC) [4] | Activity (C3H 10T1/2 [5]) | fold change (FC) [6] | Activity (C3H 10T1/2 [7]) | Activity (C3H 10T1/2 [8]) |
| --- | --- | --- | --- | --- | --- | --- | --- | --- |
| CO[C@@H](c1ccc(O)cc1)[C@H](O)C/C=C\c1ccc(O)cc1 | inactive | – | – | – | – | – | – | – |
| Oc1ccc(/C=C\C/C=C\c2ccc(O)cc2)cc1 | Active | Dose-dependent effect | Dose-dependent effect | 7.8 | Dose-dependent effect | 4.7 | – | – |
| COc1cc([C@H]2O[C@H](c3cc(OC)c(O)c(OC)c3)[C@@H](COC(=O)/C=C/c3ccc(O)cc3)[C@@H]2COC(=O)/C=C/c2ccc(O)cc2)cc(OC)c1O | – | – | – | – | – | – | Active | Active |
